Test results as given in patent US12419870B2, “Compositions and methods for immune cell modulation in adoptive immunotherapies” (Fate Therapeutics, Inc., priority 2016, dated 2025).

Key:
[1] = test system: viable CD8+ population; experiment: In vitro T cell culture compound screen, flow cytometry for cells co-expressing CCR7 and CD62L in CD8+ cells; format: cell-based, human; conditions: 10 μM, about 6 days, anti-CD3/anti-CD28 beads; hit criteria: Z-score > +2 for percent or relative absolute number of CCR7+CD62L+ cells
Text: (§1) In Vitro T Cell Culture. Fresh leukopaks (AllCells, Alameda, CA) were obtained from healthy donors, from which T cells were negatively selected using the EasySep Human T Cell Enrichment Kit (Stem Cell Technologies, Vancouver, Canada). The freshly isolated T cells were aliquoted and cryopreserved. On the day the screens were initiated, T cells were thawed and washed into X-Vivo 15 with 5% human AB serum, IL-2, pen/strep, and additional supplements. Cells were dispensed into flat-bottom 384-well plates at 5×10^5 cells/ml with anti-CD3/Anti-CD28 dynabeads (ThermoFisher, Waltham, MA) at a 3:1 bead-to-cell ratio. Individual compounds were added at a final concentration of 10 μM to each well from column 3 to column 22 of each plate. Positive and negative controls were added to additional wells. Cells were incubated for about 6 days at 37 degrees with 5% CO2.
(§2) Flow Cytometry. On Day 6 of culture, cells were stained with a fixable viability marker and fluorophore-conjugated antibodies: CD3, CD4, CD8, CD45RA, CD45RO, CD62L, CCR7, CD27, and CD122 (BD Biosciences, San Jose, CA; and BioLegend, San Diego, CA). Fluorescent absolute counting beads (Spherotech, Lake Forest, IL) were added just prior to acquisition. Data acquisition was performed on a BD Fortessa X-20 (BD Biosciences) and data were analyzed using Treestar software (FlowJo, Ashland, OR) and Spotfire (Tibco, Boston, MA).
(§3) These cells are characterized by expression of CCR7 and CD62L. Therefore, cells co-expressing both of these identifying markers were evaluated. Within the viable CD4+ population and viable CD8+ population, the percent of cells co-expressing CCR7 and CD62L was determined. The expression of either CD62L or CCR7 on T cells, as indicative of the desired T cell subsets, have been described as having favorable functional characteristics for CAR-T cell therapy, and potentially other adoptive T cell therapies.
(§4) The number of events in each of these gates relative to the number of absolute counting beads in each sample was calculated, defining a relative measure of the absolute number of naïve, stem cell memory, or central memory T cells within the CD4+ and/or CD8+ populations. A z-Score relative to the screened compound samples within each 384-well plate was calculated for each of these four values: 1) percent CCR7+CD62L+ in CD4+, 2) percent CCR7+CD62L+ in CD8+, 3) absolute relative number of CCR7+CD62L+ in CD4+, and 4) absolute relative number of CCR7+CD62L+ in CD8+(FIGS. 1A and 1i). Z-scores were also calculated for the percent viability of all cells within each sample and the relative absolute number of cells within each sample. A “Z-Score” is a statistical measurement of a score's relationship to the mean in a group of scores. A Z-score of 0 means the score is the same as the mean. A Z-score can also be positive or negative, indicating whether it is above or below the mean and by how many standard deviations.

[2] = test system: viable CD4+ population; experiment: In vitro T cell culture compound screen, flow cytometry for cells co-expressing CCR7 and CD62L in CD4+ cells; format: cell-based, human; conditions: 10 μM, about 6 days, anti-CD3/anti-CD28 beads; hit criteria: Z-score > +2 for percent or relative absolute number of CCR7+CD62L+ cells
Text: as §1, §2, §3, §4

[3] = test system: K562-CD19; experiment: Secondary tumor rechallenge of mice that survived primary tumor challenge; format: in vivo, NSG mice; conditions: 21 day post challenge with secondary tumor
[4] = test system: CD8 T cells; experiment: CD27 cell surface expression on CAR-transduced CD8 T cells by flow cytometry; format: cell-based, human; conditions: 20 nM rapa, 10 μM dmPGE2 or both; day 8; two donors; relative to vehicle (DMSO)
Description: (§5) In order to perform these studies, isolated CD8 T cells were activated in bulk on day 0 using CTS (Cell Therapy Systems) Dynabeads™ CD3/CD28 (Thermo Fisher Scientific, Waltham, MA) in T cell media supplemented with IL-2. On day 1, cells were transduced with the CAR Construct 1 shown in FIG. 2 and cell density was adjusted to 0.5×10^6/ml and 10^6 cells were seeded into 12 well plates in the presence of vehicle, 20 nM rapa, 10 μM dmPGE2 or both compounds at the same concentrations. On day 4, cells were transferred into 6-well plates and 2 ml of media was added to each well. On day 6 another 2 ml of media was added to each well. On day 8, cells were analyzed on a flow cytometer for cell surface expression of CD27.

[5] = test system: CD8 CAR-T cells; experiment: Exhaustion marker (PD-1, Tim-3) expression on CAR-T cells by flow cytometry; format: cell-based, human; conditions: 20 nM rapa, 10 μM dmPGE2 or both; two donors; relative to vehicle
Text: T cell dysfunction due to ‘exhaustion’ is a state that can preclude adequate control of cancer or infection.

[6] = test system: CD8+ T-cells; experiment: Gene panel expression changes on Affymetrix human transcriptome arrays; format: cell-based; conditions: fold change relative to vehicle treatment
Description: In order to perform these studies, isolated CD8 T cells were activated in bulk on day 0 using CTS (Cell Therapy Systems) Dynabeads™ CD3/CD28 (Thermo Fisher Scientific, Waltham, MA) in T cell media supplemented with IL-2. On day 1, cells were transduced with the CAR Construct 1 shown in FIG. 2 and cell density was adjusted to 0.5×10^6/ml and 10^6 cells were seeded into 12 well plates in the presence of vehicle, 20 nM rapa, 10 μM dmPGE2 or both compounds at the same concentrations. On day 4, cells were transferred into 6-well plates and 2 ml of media was added to each well. On day 6 another 2 ml of media was added to each well.
The RNA was analyzed on Affymetrix human transcriptome arrays and fold changes (relative to vehicle treatment) of the genes in the panel were determined.

[7] = test system: Nalm6 tumor cells; experiment: In vitro serial killing assay of CAR-T cells co-cultured with tumor cells; format: cell-based, human; conditions: three rounds of in vitro killing
Text: An in vitro serial killing assay, where CAR-T cells are allowed to “clear” tumor cells in vitro over multiple rounds, is a model that can assess CAR-T expansion in the presence of tumor cells that express the antigen recognized by the CAR. […] After thawing, the CAR-T cells were co-cultured with Nalm6 tumor cells that express endogenous CD19 and transgenic mKate2, a far-red fluorescent protein. Expression of eGFP in the CAR-T cells and mKate2 in the Nalm6 target cells allows easy and reliable identification and counting of both cell types in the serial killing assay. Prior to starting each round of killing, cell numbers were adjusted so that the same ratio of CAR-T cell to Nalm6 target cell was maintained across the CAR-T cell cultures generated from different compound treatments.

[8] = test system: CD8+ T-cells; experiment: Genome-wide expression on Human Transcriptome Array microarray chips; conditions: 20 nM rapa, 10 μM dmPGE2 or both
Description: as §5

| Structure (SMILES) | CD8 Hit [1] | CD4 Hit [2] | mice with no detectable tumor [3] [%] | CD27 expression, relative MFI (vehicle defined as 1) [4] | PD-1 expression [5] | Tim-3 expression [5] | BLIMP-1 expression [6] | clearing of target cells over time by previously treated CAR-T cells [7] | total number of genes down-regulated more than 2 fold compared to vehicle control [8] | total number of genes up-regulated more than 2 fold compared to vehicle control [8] |
| --- | --- | --- | --- | --- | --- | --- | --- | --- | --- | --- |
| Oc1cccc(-c2nc(N3CCOCC3)c3oc4ncccc4c3n2)c1 [PI-103] | CD8 | CD4 | 60 |  |  |  |  |  |  |  |
| CCCCC(C)(C)[C@H](O)/C=C/[C@H]1[C@H](O)CC(=O)[C@@H]1C/C=C\CCCC(=O)O [dmPGE2, 16,16-dimethyl Prostaglandin E2] |  |  |  | no increase | decreased | no effect | slightly upregulated | successfully cleared target cells | 38 | 71 |
